Assay results taken from article PMC3241878 (ACS chemical biology, 2011).

Molecular target: Siderocalin (Scn; a.k.a. Lcn2, Ngal, 24p3) (Homo sapiens, UniProt P80188)
Assay: intrinsic fluorescence quenching titration
Type: binding
Settings: pH 7.4, TBS, 5% DMSO, 32 μg/mL ubiquitin, 100 nM protein; ferric complex

Chain of Siderocalin (Scn; a.k.a. Lcn2, Ngal, 24p3) (P80188 21-198): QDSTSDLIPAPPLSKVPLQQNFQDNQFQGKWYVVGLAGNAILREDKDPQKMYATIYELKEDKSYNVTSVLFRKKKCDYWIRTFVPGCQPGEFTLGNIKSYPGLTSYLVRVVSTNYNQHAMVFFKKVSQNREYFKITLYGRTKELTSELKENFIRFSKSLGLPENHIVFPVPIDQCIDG

| Substance | Kd | Kd (μM) |
| --- | --- | --- |
| Fe^IIICMB (n = 3) | > 9 µM | – |
| Fe^IIICMB (n = 4) | – | 2.36 ± 9.0×10^−3 μM |
| Fe^IIICMB-5 [n = 5] | – | 1.10 ± 2.6×10^−2 μM |
| Fe^IIICMB-6 [n = 6] | – | 0.654 ± 2.2×10^−2 μM |
| Fe^IIICMB-7 [n = 7] | – | 0.128 ± 1.0×10^−3 μM |
